A short description of data set [1]: in vitro digestibility (lipase hydrolysis, TLC densitometry). It is filed as in vitro ADME, porcine. As to conditions: pig, pancreatic lipase; in three hours; 37° C., pH 7.1 phosphate buffer with cholic acid; read-out: hydrolyzed (extent of hydrolysis by lipase). Here is the method: (§1) This example outlines the procedure for estimating the in vitro digestibility of the long chain diol diesters of this invention.
(§2) 1. Buffer: A pH 7.1 phosphate buffer is prepared by dissolving 6.8 g. KH2 PO4 in 1 L. of millipore filtered water (to yield 0.05M phosphate). Fifty mg. Ca(NO3)2 and 5.0 g. cholic acid (Na salt, an ox bile isolate from Sigma) are added to give 300 microM Ca^++ and 0.5 % cholic acid in 0.05M phosphate. The pH is adjusted to approximately 7.1 with solid NaOH. Several drops of Baker "Resi-analyzed" toluene are added to prevent bacterial growth during storage at 3°-5° C.
(§3) 2. Lipase: About 15 mg./mL commercial porcine pancreatic lipase from U.S. Biochemical Corporation is dissolved in buffer.
(§4) 3. Substrates and Standards: A 1.0 mL volumetric flask is charged with an amount of lipid substrate calculated to give a concentration of 200 nanomoles per microliter in Baker "Resi-analyzed" toluene. (The proper concentration may be approximated by doubling the molecular weight of the lipid in question, dividing by 10, and diluting to the mark; this yields about 200 nanomoles per microliter.) This preparation affords the substrate to be used in the hydrolysis reactions. […]

Data set [2] can be described thus: caloric availability by in vivo animal feeding study (body weight gain). More on the design: species or system male Sprague-Dawley rats. As to conditions: rats, diet of 50% fort and 21% test compound, 14 days; from weight gain versus corn oil base line. An excerpt: This example illustrates how the novel fat mimetics of this invention are screened for caloric availability by a carefully controlled in vivo animal feeding study.
An experimental relationship between total calories ingested and animal body weight gain is established by monitoring the body weight gain associated with consumption of a nutritionally balanced diet containing varying concentrations of a reference substance such as corn oil which has a known caloric availability. Correlations between total calories ingested and body weight gain are excellent (r=0.99).
Caloric availability of an unknown substance is evaluated by substituting a specific weight of the unknown substance for the reference substance and observing the body weight gain. The gain in body weight is equated to a total number of calories using the correlation previously established for the reference data. The estimated number of calories ingested are divided by the weight of unknown substance to give the apparent calories per gram for the unknown substance. Generally speaking, in these bioavailability studies, the degree of perianal pelt soiling correlates with reduced bioavailability.
The test animals are six-week-old male Sprague-Dawley rats obtained from the Portage, Mich. facility of the Charles River Laboratories, Inc. After acclimation for 15 days, the test duration is 14 days. […]

Data set [3] has as its system porcine pancreatic lipase. As to the kind of experiment: in vitro digestibility (lipase hydrolysis, TLC densitometry). The class given is in vitro ADME. The note with it: in 10 minutes; 37° C., pH 7.1 phosphate buffer with cholic acid. Here is the method:
as §1, §2, §3, §4

For the molecule `CCCCCCCC/C=C\CCCCCCCC(=O)OCC(CCCCCCCCCCCC)OC(=O)CCCCCCC/C=C\CCCCCCCC` (stereo not drawn) [Example 1, 1,2 Tetradecane dioleate], the metabolised at 3 h in data set [1] is ~20%. For the same molecule, in data set [2], the “caloric availability (kcal/gram upon being metabolized)” value is “about 6.0 kcal/gram”.
As to `CCCCCCCC/C=C\CCCCCCCC(=O)OCC(COC(=O)CCCCCCC/C=C\CCCCCCCC)OC(=O)CCCCCCC/C=C\CCCCCCCC` [triolein, reference compound], the “hydrolysis by lipase (in words)” value in data set [3] is “substantially hydrolyzed”.
